From US20250059205A1, “Heterocyclic Compounds and Methods of Use” (AMGEN INC., priority 2021, published 2025)
pIC50: −log10 of the molar value.

Assays:
[1] = tested on: Phosphorylation of ERK1/2 in A-427 cells; experiment: Phospho-ERK1/2 MSD Assay (A-427 cells); type: cell-based; conditions: Homo sapiens, A-427, 2 h, 2 h treatment, read-out: p-ERK (A427 cells) IC50
Procedure, shortened: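 ERK1/2 phosphorylation measured by Meso Scale whole-cell lysate assay after A-427 cells were exposed to a titration of compound for 2 h at 37 °C.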

[2] = target: His-tagged KRAS G12D protein (Homo sapiens, UniProt P01116, G12D); experiment: KRAS G12D TR-FRET Assay; type: binding
[3] = tested on: Phosphorylation of ERK1/2 in AsPC-1 cells; experiment: Phospho-ERK1/2 MSD Assay (AsPC-1 cells); type: cell-based; conditions: Homo sapiens, ASPC1, 2 h, 2 hours treatment, read-out: p-ERK (AsPC-1 cells) IC50
Procedure, shortened: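 Read-out: MSD electrochemiluminescent detection of phosphorylated ERK1/2 in whole-cell lysates, fitted to a 4-parameter logistic curve for IC50. Prior to lysis, AsPC-1 cells (25,000 per well) received a 2 h compound dose-response at 37 °C.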

[4] = target: GDP-bound KRAS protein (aa 1-169), containing both G12D and C118A amino acid substitutions (Homo sapiens, UniProt P01116, C118A/G12D); experiment: KRAS G12D Coupled Nucleotide Exchange Assay; type: biochemical; conditions: 2 h compound pre-incubation
Method: Following compound pre-incubation, purified SOS protein (aa 564-1049) and GTP (Roche 10106399001) were added to the assay wells and incubated for an additional 30 min. […] The assay plates were then read on a PerkinElmer EnVision Multilabel Reader, using AlphaScreen® technology, and data were analyzed using a 4-parameter logistic model to calculate IC50 values.

His-tagged KRAS G12D protein, sequence (P01116 1-188 isoform P01116-2 G12D): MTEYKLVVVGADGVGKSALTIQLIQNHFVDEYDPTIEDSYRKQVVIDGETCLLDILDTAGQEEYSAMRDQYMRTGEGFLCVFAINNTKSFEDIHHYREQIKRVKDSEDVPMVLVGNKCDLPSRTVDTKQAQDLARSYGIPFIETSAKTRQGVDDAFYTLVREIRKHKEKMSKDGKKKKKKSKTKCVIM
GDP-bound KRAS protein (aa 1-169), containing both G12D and C118A amino acid substitutions, sequence (P01116 1-169 isoform P01116-2 G12D/C118A): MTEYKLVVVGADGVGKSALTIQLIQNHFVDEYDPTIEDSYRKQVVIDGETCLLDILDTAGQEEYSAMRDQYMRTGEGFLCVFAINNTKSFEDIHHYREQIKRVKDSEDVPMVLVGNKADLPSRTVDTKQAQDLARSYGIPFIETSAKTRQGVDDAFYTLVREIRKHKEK

Cc1cc2[nH]ncc2c(-c2c(F)cc3c(N4C[C@H]5CC[C@@H](C4)N5)nc(OC[C@@]45CCCN4C[C@H](F)C5)nc3c2F)c1Cl [Example 75, 4-((1R,5S)-3,8-diazabicyclo[3.2. 1]octan-3-yl)-7-(5-chloro-6-methyl-1H-indazol-4-yl)-6,8-difluoro-2-(((2R,7aS)-2-fluorotetrahydro-1H-pyrrolizin-7a(5H)-yl)methoxy) quinazoline]
pIC50 [1]: 6.86 | pIC50 [2]: 8.30 | pIC50 [3]: 6.53 | Avg 2 h Coupled Exchange IC50 [4]: 3 nM

Oc1cc(-c2c(F)cc3c(N4C[C@H]5CC[C@@H](C4)N5)nc(OC[C@@]45CCCN4C[C@H](F)C5)nc3c2F)c2c(Cl)cccc2c1 [Example 70, 4-(4-((1R,5S)-3,8-diazabicyclo[3.2. 1]octan-3-yl)-6,8-difluoro-2-(((2R,7aS)-2-fluorotetrahydro-1H-pyrrolizin-7a(5H)-yl)methoxy)quinazolin-7-yl)-5-chloronaphthalen-2-ol]
pIC50 [1]: 7.92 | pIC50 [2]: 8.52 | pIC50 [3]: 7.31 | Avg 2 h Coupled Exchange IC50 [4]: 7 nM

Oc1cc(-c2cc3nc(OC[C@@]45CCCN4C[C@H](F)C5)nc(N4C[C@@H]5CC[C@H]4CN5)c3cc2F)c2c(F)c(F)ccc2c1 [Example 173, 4-(4-((1S,4S)-2,5-diazabicyclo[2.2.2]octan-2-yl)-6-fluoro-2-(((2R,7aS)-2-fluorotetrahydro-1H-pyrrolizin-7a(5H)-yl)methoxy)quinazolin-7-yl)-5,6-difluoronaphthalen-2-ol]
pIC50 [1]: 6.82 | pIC50 [2]: 8.70 | pIC50 [3]: 6.44 | Avg 2 h Coupled Exchange IC50 [4]: 3 nM

Fc1c(-c2cc(C(F)F)cc3ccccc23)ccc2c(N3C[C@H]4CC[C@@H](C3)N4)nc(OC[C@@]34CCCN3C[C@H](F)C4)nc12 [Example 225, 4-((1R,5S)-3,8-diazabicyclo[3.2.1]octan-3-yl)-7-(3-(difluoromethyl)naphthalen-1-yl)-8-fluoro-2-(((2R,7aS)-2-fluorotetrahydro-1H-pyrrolizin-7a(5H)-yl)methoxy) quinazoline]
pIC50 [1]: 7.10 | pIC50 [2]: 7.24 | pIC50 [3]: 6.59 | Avg 2 h Coupled Exchange IC50 [4]: 44 nM

CCc1c(F)ccc2cc(O)cc(-c3c(F)cc4c(N5C[C@H]6CC[C@@H](C5)N6)nc(OCc5nccn5C)nc4c3F)c12 [Example 213, 4-(4-((1R,5S)-3,8-diazabicyclo[3.2.1]octan-3-yl)-6,8-difluoro-2-((1-methyl-1H-imidazol-2-yl)methoxy)quinazolin-7-yl)-5-ethyl-6-fluoronaphthalen-2-ol]
pIC50 [1]: 5.84 | pIC50 [2]: 7.96 | pIC50 [3]: 5.64 | Avg 2 h Coupled Exchange IC50 [4]: 6 nM

CCc1cccc2cc(O)cc(-c3cc4nc(OC[C@@]56CCCN5C[C@H](F)C6)nc(N5C[C@H]6CC[C@@H](C5)N6)c4cc3F)c12 [Example 171, 4-(4-((1R,5S)-3,8-diazabicyclo[3.2.1]octan-3-yl)-6-fluoro-2-(((2R,7aS)-2-fluorotetrahydro-1H-pyrrolizin-7a(5H)-yl)methoxy)quinazolin-7-yl)-5-ethylnaphthalen-2-ol]
pIC50 [1]: 7.38 | pIC50 [2]: 8.22 | pIC50 [3]: 6.77 | Avg 2 h Coupled Exchange IC50 [4]: 3 nM

CCc1c(F)ccc2cc(O)cc(-c3c(F)cc4c(N5C[C@H]6CC[C@@H](C5)N6)nc(/C=C/C(C)(C)O)nc4c3F)c12 [Example 218, 4-(4-((1R,5S)-3,8-Diazabicyclo[3.2.1]octan-3-yl)-6,8-difluoro-2-((E)-3-hydroxy-3-methylbut-1-en-1-yl)quinazolin-7-yl)-S-ethyl-6-fluoronaphthalen-2-ol]
pIC50 [1]: 5.84 | pIC50 [2]: 8.22 | pIC50 [3]: 5.94 | Avg 2 h Coupled Exchange IC50 [4]: 6 nM

CCc1c(F)ccc2cccc(-c3c(F)cc4c(N5C[C@H]6CC[C@@H](C5)N6)nc(OC[C@@]56CCCN5C[C@H](F)C6)nc4c3F)c12 [Example 69, 4-((1R,5S)-3,8-diazabicyclo[3.2. 1]octan-3-yl)-7-(8-ethyl-7-fluoronaphthalen-1-yl)-6,8-difluoro-2-(((2R,7aS)-2-fluorotetrahydro-1H-pyrrolizin-7a(5H)-yl)methoxy) quinazoline]
pIC50 [1]: 6.00 | pIC50 [2]: 8.40 | pIC50 [3]: 6.29 | Avg 2 h Coupled Exchange IC50 [4]: 2 nM

Oc1cc(-c2cc3nc(OC[C@@]45CCCN4C[C@H](F)C5)nc(N4C[C@H]5CC[C@@H](C4)N5)c3cc2F)c2ccccc2c1 [Example 42, 4-(4-((1R,5S)-3,8-diazabicyclo[3.2. 1]octan-3-yl)-6-fluoro-2-(((2R,7aS)-2-fluorotetrahydro-1H-pyrrolizin-7a(5H)-yl)methoxy)quinazolin-7-yl)naphthalen-2-ol]
pIC50 [1]: 7.11 | pIC50 [2]: 8.52 | pIC50 [3]: 6.65 | Avg 2 h Coupled Exchange IC50 [4]: 3 nM

C#Cc1cccc2cc(O)cc(-c3c(F)cc4c(N5C[C@H]6CC[C@@H](C5)N6)nc(OC[C@@]56CCCN5C[C@H](F)C6)nc4c3F)c12 [Example 190, 4-(4-((1R,5S)-3,8-diazabicyclo[3.2.1]octan-3-yl)-6,8-difluoro-2-(((2R,7aS)-2-fluorotetrahydro-1H-pyrrolizin-7a(5H)-yl)methoxy)quinazolin-7-yl)-5-ethynylnaphthalen-2-ol]
pIC50 [1]: 9.00 | pIC50 [2]: 8.40 | pIC50 [3]: 8.40 | Avg 2 h Coupled Exchange IC50 [4]: 5 nM

CCc1cccc2cc(O)cc(-c3ccc4c(N5[C@@H]6CC[C@H]5CNC6)nc(OC[C@@]56CCCN5C[C@H](F)C6)nc4c3C)c12 [Example 160, 4-(4-((1R,5S)-3,8-diazabicyclo[3.2.1]octan-8-yl)-2-(((2R,7aS)-2-fluorotetrahydro-1H-pyrrolizin-7a(5H)-yl)methoxy)-8-methylquinazolin-7-yl)-5-ethylnaphthalen-2-ol]
pIC50 [1]: 6.39 | pIC50 [2]: 8.30 | pIC50 [3]: 6.12 | Avg 2 h Coupled Exchange IC50 [4]: 6 nM

CCc1cccc2cc(O)cc(-c3c(Cl)cc4c(N5C[C@H]6CC[C@@H](C5)N6)nc(OC[C@@]56CCCN5C[C@H](F)C6)nc4c3F)c12 [Example 170, 4-(4-((1R,5S)-3,8-diazabicyclo[3.2.1]octan-3-yl)-6-chloro-8-fluoro-2-(((2R,7aS)-2-fluorotetrahydro-1H-pyrrolizin-7a(5H)-yl)methoxy)quinazolin-7-yl)-5-ethylnaphthalen-2-ol]
pIC50 [1]: 7.07 | pIC50 [2]: 8.52 | pIC50 [3]: 6.90 | Avg 2 h Coupled Exchange IC50 [4]: 3 nM

C#Cc1cccc2cccc(-c3c(F)cc4c(N5[C@@H]6CC[C@H]5CNC6)nc(OC[C@@]56CCCN5C[C@H](F)C6)nc4c3F)c12 [Example 100, 4-((1R,5S)-3,8-Diazabicyclo[3.2.1]octan-8-yl)-7-(8-ethynylnaphthalen-1-yl)-6,8-difluoro-2-(((2R,7aS)-2-fluorotetrahydro-1H-pyrrolizin-7a(5H)-yl)methoxy)quinazoline]
pIC50 [1]: 6.02 | pIC50 [2]: 8.10 | pIC50 [3]: 6.18 | Avg 2 h Coupled Exchange IC50 [4]: 6 nM

Oc1cc(-c2ccc3c(N4[C@@H]5CC[C@H]4CNC5)nc(OC[C@@]45CCCN4C[C@H](F)C5)nc3c2F)c2cccnc2c1 [Example 29, 5-(4-((1R,5S)-3,8-diazabicyclo[3.2. 1]octan-8-yl)-8-fluoro-2-(((2R,7aS)-2-fluorotetrahydro-1H-pyrrolizin-7a(5H)-yl)methoxy)quinazolin-7-yl)quinolin-7-ol]
pIC50 [1]: < 5.00 | pIC50 [2]: 6.79 | pIC50 [3]: 5.00 | Avg 2 h Coupled Exchange IC50 [4]: 80 nM

Nc1cc(F)c(F)c(-c2c(F)cc3c(N4CC5CCC(C4)N5)nc(OC[C@@]45CCCN4C[C@H](F)C5)nc3c2F)c1 [Example 118]
pIC50 [1]: 5.17 | pIC50 [2]: 6.85 | pIC50 [3]: 5.31 | Avg 2 h Coupled Exchange IC50 [4]: 39 nM

CCc1c(F)ccc2cc(O)cc(-c3c(O)cc4c(N5[C@@H]6CC[C@H]5CNC6)nc(OC[C@@]56CCCN5C[C@H](F)C6)nc4c3F)c12 [Example 200, 4-((1R,5S)-3,8-diazabicyclo[3.2.1]octan-8-yl)-7-(8-ethyl-7-fluoro-3-hydroxynaphthalen-1-yl)-8-fluoro-2-(((2R,7aS)-2-fluorotetrahydro-1H-pyrrolizin-7a(5H)-yl)methoxy) quinazolin-6-ol]
pIC50 [1]: 7.96 | pIC50 [2]: 8.40 | pIC50 [3]: 7.27 | Avg 2 h Coupled Exchange IC50 [4]: 4 nM

Oc1ccc(Cl)c(-c2ccc3c(N4C[C@H]5CC[C@@H](C4)N5)nc(OC[C@@]45CCCN4C[C@H](F)C5)nc3c2)c1F [Example 36, 3-(4-((1R,5S)-3,8-diazabicyclo[3.2. 1]octan-3-yl)-2-(((2R,7aS)-2-fluorotetrahydro-1H-pyrrolizin-7a(5H)-yl)methoxy)quinazolin-7-yl)-4-chloro-2-fluorophenol]
pIC50 [1]: < 5.00 | pIC50 [2]: 6.32 | pIC50 [3]: < 5.00 | Avg 2 h Coupled Exchange IC50 [4]: 82 nM

Oc1cc(-c2c(F)cc3c(N4[C@@H]5CC[C@H]4CNC5)nc(OC[C@@]45CCCN4C[C@H](F)C5)nc3c2F)c2c(F)c(F)ccc2c1 [Example 148, 4-(4-((1R,5S)-3,8-diazabicyclo[3.2.1]octan-8-yl)-6,8-difluoro-2-(((2R,7aS)-2-fluorotetrahydro-1H-pyrrolizin-7a(5H)-yl)methoxy)quinazolin-7-yl)-5,6-difluoronaphthalen-2-ol]
pIC50 [1]: 7.08 | pIC50 [2]: 8.70 | pIC50 [3]: 6.84 | Avg 2 h Coupled Exchange IC50 [4]: 2 nM
